Laboratory results reported in article PMC3265250 (Chemotherapy Research and Practice, 2011).
In brackets after ≈: the same amount, converted by molar mass. Like-named read-outs stand apart in the source and are kept apart here. No end group written: not given here.

Tests used:
[1] = tested on: S. aureus ATCC 6538P; test: MIC, microbroth dilution, referential strain ATCC 6538P; type: cell-based, Staphylococcus aureus; settings: ATCC 6538P, microbroth dilution, MHB II, 5 × 10^5 CFU/mL, 18 h at 37°C, triplicate
Description: (§1) A total number of 24 SA strains were obtained from patients with erythrodermia and 3 reference SA ones from the American Type Culture Collection: 6538P ATCC, 9144 ATCC, and 25923 ATCC (Institute of Experimental Therapy, Wroclaw, Poland). […] Polypropylene 96-well plates (Sigma-Aldrich) were incubated for 18 h at 37°C. MIC was taken as the lowest drug concentration at which a noticeable growth was inhibited. […] The experiments were performed in triplicate.

[2] = tested on: S. aureus ATCC 9144; test: MIC, microbroth dilution, referential strain ATCC 9144; type: cell-based, Staphylococcus aureus; settings: ATCC 9144, microbroth dilution, MHB II, 5 × 10^5 CFU/mL, 18 h at 37°C, triplicate
[3] = tested on: S. aureus ATCC 25923; test: MIC, microbroth dilution, referential strain ATCC 25923; type: cell-based, Staphylococcus aureus; settings: ATCC 25923, microbroth dilution, MHB II, 5 × 10^5 CFU/mL, 18 h at 37°C, triplicate
Description: as §1

[4] = tested on: Superantigen negative S. aureus (10); settings: for MBC Range / MIC 50% / MIC 90% / MIC Range: superantigen negative clinical isolates (10), triplicate; for MBC Range: more than 99.9% reduction of the initial inoculums; for MIC 50% / MIC 90% / MIC Range: microbroth dilution, MHB II, 5 × 10^5 CFU/mL, 18 h at 37°C
[5] = tested on: Superantigen positive S. aureus (14); settings: for MBC Range / MIC Range / MIC 50% / MIC 90%: superantigen positive clinical isolates (14), triplicate; for MBC Range: more than 99.9% reduction of the initial inoculums; for MIC Range / MIC 50% / MIC 90%: microbroth dilution, MHB II, 5 × 10^5 CFU/mL, 18 h at 37°C
[6] = tested on: Superantigen negative S. aureus (10); test: microbe, parasite or virus in culture; settings: Staphylococcus aureus; for MIC50 / MIC90 / MIC: 18 h; for MIC: read-out: MIC Range
[7] = tested on: Superantigen positive S. aureus (14); test: microbe, parasite or virus in culture; settings: Staphylococcus aureus; for MIC50 / MIC90 / MIC: 18 h; for MIC: read-out: MIC Range
[8] = Staphylococcus aureus, ATCC6538P, read-out: MIC
[9] = Staphylococcus aureus, ATCC9144, read-out: MIC
[10] = Staphylococcus aureus, ATCC25923, read-out: MIC

Molecule | MIC [1, 8] | MIC [2, 9] | MIC [3, 10] | MBC Range [4] | MBC Range [5] | MIC50 [6] | MIC90 [6] | MIC [6] | MIC90 ([6]; read-out: MICs 90%) | MIC50 [7] | MIC90 [7] | MIC90 ([7]; read-out: MICs 90%) | MIC Range [5] | MIC [1] | MIC [2] | MIC [3] | MBC 50% [4] | MBC 90% [4] | MBC 50% [5] | MBC 90% [5] | further results
O=C(N[C@H](CO)[C@H](O)c1ccc([N+](=O)[O-])cc1)C(Cl)Cl [Chloramphenicol, chloramphenicol] | 4 µg/mL (≈ 12.4 µM) | 4 µg/mL (≈ 12.4 µM) | 4 µg/mL (≈ 12.4 µM) | 8 to 32 µg/mL | 8 to 128 µg/mL | 4 µg/mL (≈ 12.4 µM) | 32 µg/mL (≈ 99 µM) | 2 to 32 µg/mL (≈ 6.19 to 99 µM) | 32 µg/mL (≈ 99 µM) | 8 µg/mL (≈ 24.8 µM) | 64 µg/mL (≈ 198 µM) | 64 µg/mL (≈ 198 µM) | – | – | – | – | – | – | – | – | MBC ([6]; read-out: MBC 50%): 8 µg/mL (≈ 24.8 µM); MBC ([6]; read-out: MBC 90%): 32 µg/mL (≈ 99 µM); MIC [7]: 4 to 128 µg/mL (≈ 12.4 to 396 µM); MBC ([7]; read-out: MBC 50%): 16 µg/mL (≈ 49.5 µM); MBC ([7]; read-out: MBC 90%): 128 µg/mL (≈ 396 µM)
O=C(O)c1cn(C2CC2)c2cc(N3CCNCC3)c(F)cc2c1=O [Ciprofloxacin, ciprofloxacin] | 1 µg/mL (≈ 3.02 µM) | – | 1 µg/mL (≈ 3.02 µM) | – | – | – | – | – | – | – | – | – | – | – | – | – | – | – | – | – | –
CC[C@H]1OC(=O)[C@H](C)[C@@H](O[C@H]2C[C@@](C)(OC)[C@@H](O)[C@H](C)O2)[C@H](C)[C@@H](O[C@@H]2O[C@H](C)C[C@H](N(C)C)[C@H]2O)[C@](C)(O)C[C@@H](C)C(=O)[C@H](C)[C@@H](O)[C@]1(C)O [Erythromycin, erythromycin] | 1 µg/mL (≈ 1.36 µM) | 1 µg/mL (≈ 1.36 µM) | 1 µg/mL (≈ 1.36 µM) | – | 4 to 512 µg/mL | 0.5 µg/mL (≈ 0.681 µM) | 0.5 µg/mL (≈ 0.681 µM) | 0.25 to 64 µg/mL (≈ 0.341 to 87.2 µM) | 0.5 µg/mL (≈ 0.681 µM) | 1 µg/mL (≈ 1.36 µM) | 256 µg/mL (≈ 349 µM) | 256 µg/mL (≈ 349 µM) | 0.25 to 512 µg/mL | – | – | – | – | – | – | – | MBC ([6]; read-out: MBC 50%): 1 µg/mL (≈ 1.36 µM); MBC ([6]; read-out: MBC 90%): 2 µg/mL (≈ 2.73 µM); MBC ([7]; read-out: MBC 50%): 8 µg/mL (≈ 10.9 µM); MBC ([7]; read-out: MBC 90%): 128 µg/mL (≈ 174 µM)
CC(=O)NC[C@H]1CN(c2ccc(N3CCOCC3)c(F)c2)C(=O)O1 [Linezolid, linezolid] | 0.5 µg/mL (≈ 1.48 µM) | 1 µg/mL (≈ 2.96 µM) | 0.5 µg/mL (≈ 1.48 µM) | – | – | 1 µg/mL (≈ 2.96 µM) | 1 µg/mL (≈ 2.96 µM) | 0.5 to 2 µg/mL (≈ 1.48 to 5.93 µM) | 1 µg/mL (≈ 2.96 µM) | 1 µg/mL (≈ 2.96 µM) | 2 µg/mL (≈ 5.93 µM) | 2 µg/mL (≈ 5.93 µM) | – | – | – | – | – | – | – | – | MIC [7]: 0.5 to 2 µg/mL (≈ 1.48 to 5.93 µM)
FLPLIGRVLSGIL-NH2 (C-terminus assumed) [Temporin A, temporin A] | – | – | – | 16 to 64 µg/mL | 16 to 64 µg/mL | – | – | – | – | – | – | – | 8 to 32 µg/mL | 8 µg/mL | 16 µg/mL | 16 µg/mL | 16 µg/mL | 32 µg/mL | 32 µg/mL | 64 µg/mL | MIC 50% [4]: 8 µg/mL; MIC 90% [4]: 16 µg/mL; MIC Range [4]: 8 to 32 µg/mL; MIC 50% [5]: 8 µg/mL; MIC 90% [5]: 16 µg/mL
GLFDIIKKIAESF-NH2 (C-terminus assumed) [Aurein 1.2, aurein 1.2] | – | – | – | 64 to 128 µg/mL | 64 to 128 µg/mL | – | – | – | – | – | – | – | 32 to 128 µg/mL | 64 µg/mL | 64 µg/mL | 64 µg/mL | 64 µg/mL | 128 µg/mL | 64 µg/mL | 128 µg/mL | MIC 50% [4]: 64 µg/mL; MIC 90% [4]: 128 µg/mL; MIC Range [4]: 32 to 128 µg/mL; MIC 50% [5]: 64 µg/mL; MIC 90% [5]: 128 µg/mL
GLFDVIKKVASVIGGL-NH2 (C-terminus assumed) [Citropin 1.1, citropin 1.1] | – | – | – | 16 to 64 µg/mL | 16 to 64 µg/mL | – | – | – | – | – | – | – | 8 to 32 µg/mL | 8 µg/mL | 32 µg/mL | 32 µg/mL | 16 µg/mL | 64 µg/mL | 16 µg/mL | 64 µg/mL | MIC 50% [4]: 16 µg/mL; MIC 90% [4]: 32 µg/mL; MIC Range [4]: 8 to 32 µg/mL; MIC 50% [5]: 16 µg/mL; MIC 90% [5]: 32 µg/mL
GVIDAAKKVVNVLKNLF-NH2 (C-terminus assumed) [Uperin 3.6, uperin 3.6] | – | – | – | – | – | – | – | – | – | – | – | – | – | – | – | – | 128 µg/mL | 128 µg/mL | 128 µg/mL | 128 µg/mL | –
